Molecular target: T1, HIF-PH2 (EGLN1) (Homo sapiens, UniProt Q9GZT9)
T1 construct: made in house; host or cells: insect Hi5 cells
Test: HIF-PH assay (14CO2 capture, peptide-dependent turnover)
Assay type: biochemical
Conditions: for inhibition at 50 µM: compound concentration 50 μM; for inhibition at 7.4 µM: compound concentration 7.4 μM
Text: Ketoglutaric acid α-[1-^14C]-sodium salt, alpha-ketoglutaric acid sodium salt, and HPLC purified peptide may be obtained from commercial sources, e.g., Perkin-Elmer (Wellesley Mass.), Sigma-Aldrich, and SynPep Corp. (Dublin Calif.), respectively. Peptides for use in the assay may be fragments of HIFα as described above or as disclosed in International Publication WO 2005/118836, incorporated by reference herein. For example, a HIF peptide for use in the HIF-PH assay is [methoxycoumarin]-DLDLEALAPYIPADDDFQL-amide (SEQ ID NO:2). HIF-PH, e.g., HIF-PH2 (EGLN1), can be expressed in, e.g., insect Hi5 cells, and partially purified, e.g., through a SP ion exchange chromatography column. Enzyme activity is determined by capturing ^14CO2 using an assay described by Kivirikko and Myllyla (1982, Methods Enzymol. 82:245-304). Assay reactions contain 50 mM HEPES (pH 7.4), 100 μM α-ketoglutaric acid sodium salt, 0.30 μCi/mL ketoglutaric acid α-[1-^14C]-sodium salt, 40 μM FeSO4, 1 mM ascorbate, 1541.8 units/mL Catalase, with or without 50 μM peptide substrate and various concentrations of compound of the invention. Reactions are initiated by addition of HIF-PH enzyme.
The peptide-dependent percent turnover is calculated by subtracting percent turnover in the absence of peptide from percent turnover in the presence of substrate peptide. Percent inhibition and IC50 are calculated using peptide-dependent percent turnover at given inhibitor concentrations. Calculation of IC50 values for each inhibitor is conducted using GraFit software (Erithacus Software Ltd., Surrey UK).
Representative compounds of the invention were analyzed using the HIF-PH assay described above. Table 1 presents enzyme inhibition data for exemplary compounds against HIF-PH2, a representative HIF prolyl hydroxylase. By inhibiting HIF prolyl hydroxylase, compounds of the invention stabilize HIFα, which then combines with HIFβ to form an active transcription factor that increases expression of various genes involved in numerous beneficial cellular processes.

T1 sequence (Q9GZT9 whole entry): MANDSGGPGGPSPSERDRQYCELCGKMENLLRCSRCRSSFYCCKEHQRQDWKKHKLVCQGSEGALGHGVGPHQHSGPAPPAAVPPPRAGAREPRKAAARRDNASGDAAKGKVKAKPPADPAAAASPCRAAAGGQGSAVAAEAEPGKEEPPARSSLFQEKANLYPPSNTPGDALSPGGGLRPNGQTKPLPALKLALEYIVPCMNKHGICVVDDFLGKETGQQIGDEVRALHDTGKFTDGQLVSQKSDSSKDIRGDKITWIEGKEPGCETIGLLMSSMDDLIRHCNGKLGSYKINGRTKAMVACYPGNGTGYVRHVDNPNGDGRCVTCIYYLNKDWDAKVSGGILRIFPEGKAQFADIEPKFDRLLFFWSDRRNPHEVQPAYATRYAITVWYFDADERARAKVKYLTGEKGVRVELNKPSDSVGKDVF

inhibition at 50 µM	SMILES	also measured
100%	O=C(O)CNC(=O)c1c(O)c2cc(Cl)cc(Cc3ccccc3)c2sc1=O [Example 42, [(8-Benzyl-6-chloro-4-hydroxy-2-oxo-2H-thiochromene-3-carbonyl)-amino]-acetic acid]	
100%	O=C(O)CNC(=O)c1c(O)c2cc(Cl)cc(-c3cc(C(F)(F)F)cc(C(F)(F)F)c3)c2sc1=O [Example 43, {[8-(3,5-Bis-trifluoromethyl-phenyl)-6-chloro-4-hydroxy-2-oxo-2H-thiochromene-3-carbonyl]-amino}-acetic acid]	
100%	O=C(O)CNC(=O)c1c(O)c2cc(Cl)cc(-c3ccccc3)c2sc1=O [Example 44, [(6-Chloro-4-hydroxy-2-oxo-8-phenyl-2H-thiochromene-3-carbonyl)-amino]-acetic acid]	
100%	Cn1nc(C(F)(F)F)cc1-c1cc(Cl)cc2c(O)c(C(=O)NCC(=O)O)c(=O)sc12 [Example 45, {[6-Chloro-4-hydroxy-8-(2-methyl-5-trifluoromethyl-2H-pyrazol-3-yl)-2-oxo-2H-thiochromene-3-carbonyl]-amino}-acetic acid]	
100%	O=C(O)CNC(=O)c1c(O)c2cc(Cl)cc(-c3cccnc3)c2sc1=O [Example 46, [(6-Chloro-4-hydroxy-2-oxo-8-pyridin-3-yl-2H-thiochromene-3-carbonyl)-amino]-acetic acid]	
100%	O=C(O)CNC(=O)c1c(O)c2cccc(Cc3ccccc3)c2sc1=O [Example 47, [(8-Benzyl-4-hydroxy-2-oxo-2H-thiochromene-3-carbonyl)-amino]-acetic acid]	
100%	O=C(O)CNC(=O)c1c(O)c2cccc(-c3cc(C(F)(F)F)cc(C(F)(F)F)c3)c2sc1=O [Example 48, {[8-(3,5-Bis-trifluoromethyl-phenyl)-4-hydroxy-2-oxo-2H-thiochromene-3-carbonyl]-amino}-acetic acid]	
100%	Cn1nc(C(F)(F)F)cc1-c1cccc2c(O)c(C(=O)NCC(=O)O)c(=O)sc12 [Example 49, {[4-Hydroxy-8-(2-methyl-5-trifluoromethyl-2H-pyrazol-3-yl)-2-oxo-2H-thiochromene-3-carbonyl]-amino}-acetic acid]	
98.8%	O=C(O)CNC(=O)c1c(O)c2cccc(-c3cccnc3)c2sc1=O [Example 50, [(4-Hydroxy-2-oxo-8-pyridin-3-yl-2H-thiochromene-3-carbonyl)-amino]-acetic acid]	
98.8%	O=C(O)CNC(=O)c1c(O)c2cccc(-c3ccccc3)c2sc1=O [Example 51, [(4-Hydroxy-2-oxo-8-phenyl-2H-thiochromene-3-carbonyl)-amino]-acetic acid]	
96.5%	O=C(O)CNC(=O)c1c(O)c2ccc(Cl)cc2sc1=O [Example 60, [(7-Chloro-4-hydroxy-2-oxo-2H-thiochromene-3-carbonyl)-amino]-acetic acid]	

Continued, molecule first:

SMILES	inhibition at 50 µM	also measured
O=C(O)CNC(=O)c1c(O)c2cc(-c3ccc(OC(F)(F)F)cc3)ccc2sc1=O [Example 40, {[4-Hydroxy-2-oxo-6-(4-trifluoromethoxy-phenyl)-2H-thiochromene-3-carbonyl]-amino}-acetic acid]	94.8%	
O=C(O)CNC(=O)c1c(O)c2cc(NC(=O)c3ccccc3)ccc2sc1=O [Example 41, [(6-Benzoylamino-4-hydroxy-2-oxo-2H-thiochromene-3-carbonyl)-amino]-acetic acid]	100%	
O=C(O)CNC(=O)c1c(O)c2c(F)cccc2sc1=O [Example 52, [(5-Fluoro-4-hydroxy-2-oxo-2H-thiochromene-3-carbonyl)-amino]-acetic acid]	98.5%	
O=C(O)CNC(=O)c1c(O)c2ccc(C3CC3)cc2sc1=O [Example 53, [(7-Cyclopropyl-4-hydroxy-2-oxo-2H-thiochromene-3-carbonyl)-amino]-acetic acid]	99%	
Cn1nc(C(F)(F)F)cc1-c1ccc2c(O)c(C(=O)NCC(=O)O)c(=O)sc2c1 [Example 54, {[4-Hydroxy-7-(2-methyl-5-trifluoromethyl-2H-pyrazol-3-yl)-2-oxo-2H-thiochromene-3-carbonyl]-amino}-acetic acid]	98.6%	
C[C@H](NC(=O)c1c(O)c2ccc(-c3cc(C(F)(F)F)nn3C)cc2sc1=O)C(=O)O [Example 55, 2-(S)-{[4-Hydroxy-7-(2-methyl-5-trifluoromethyl-2H-pyrazol-3-yl)-2-oxo-2H-thiochromene-3-carbonyl]-amino}-propionic acid]	94.5%	
O=C(O)CNC(=O)c1c(O)c2cc(Cl)cc(C#Cc3ccccc3)c2sc1=O [Example 56, [(6-Chloro-4-hydroxy-2-oxo-8-phenylethynyl-2H-thiochromene-3-carbonyl)-amino]-acetic acid]		inhibition at 7.4 µM: 99.7%
C[C@H](NC(=O)c1c(O)c2ccccc2sc1=O)C(=O)O [Example 57, 2-(S)-[(4-Hydroxy-2-oxo-2H-thiochromene-3-carbonyl)-amino]-propionic acid]		inhibition at 7.4 µM: 98.4%
O=C(O)CNC(=O)c1c(O)c2cc(Cl)ccc2sc1=O [Example 58, [(6-Chloro-4-hydroxy-2-oxo-2H-thiochromene-3-carbonyl)-amino]-acetic acid]		inhibition at 7.4 µM: 96.8%
C[C@H](NC(=O)c1c(O)c2cc(Cl)ccc2sc1=O)C(=O)O [Example 59, 2-(S)-[(6-Chloro-4-hydroxy-2-oxo-2H-thiochromene-3-carbonyl)-amino]-propionic acid]	95.6%	
C[C@H](NC(=O)c1c(O)c2ccc(Cl)cc2sc1=O)C(=O)O [Example 61, 2-(S)-[(7-Chloro-4-hydroxy-2-oxo-2H-thiochromene-3-carbonyl)-amino]-propionic acid]	100%	
O=C(O)CNC(=O)c1c(O)c2cc(OCc3ccccc3)ccc2sc1=O [Example 62, [(6-Benzyloxy-4-hydroxy-2-oxo-2H-thiochromene-3-carbonyl)-amino]-acetic acid]	100%	
O=C(O)CNC(=O)c1c(O)c2cc(OCC3CCCCC3)ccc2sc1=O [Example 63, [(6-Cyclohexylmethoxy-4-hydroxy-2-oxo-2H-thiochromene-3-carbonyl)-amino]-acetic acid]	98.9%	
CCCCCCOc1ccc2sc(=O)c(C(=O)NCC(=O)O)c(O)c2c1 [Example 64, [(6-Hexyloxy-4-hydroxy-2-oxo-2H-thiochromene-3-carbonyl)-amino]-acetic acid]		inhibition at 200 µM (compound concentration 200 μM): 100%
